Patent US8912216B2, “Hetaryl-[1,8]naphthyridine derivatives” (Merck Patent GmbH, priority 2010, dated 2014)

Tests used:
GST-ALK5 = molecular target: T1, GST-ALK5 (Homo sapiens, UniProt P36897); assay: In-vitro (enzyme) kinase assay, 384-well flashplate (Example 36); assay type: biochemical; details: GST-ALK5, GST-SMAD2 substrate, 3 mM ATP, 30° C., 45 min; read-out: TβR activity (Example 36)
T1 sequence (P36897 34-503): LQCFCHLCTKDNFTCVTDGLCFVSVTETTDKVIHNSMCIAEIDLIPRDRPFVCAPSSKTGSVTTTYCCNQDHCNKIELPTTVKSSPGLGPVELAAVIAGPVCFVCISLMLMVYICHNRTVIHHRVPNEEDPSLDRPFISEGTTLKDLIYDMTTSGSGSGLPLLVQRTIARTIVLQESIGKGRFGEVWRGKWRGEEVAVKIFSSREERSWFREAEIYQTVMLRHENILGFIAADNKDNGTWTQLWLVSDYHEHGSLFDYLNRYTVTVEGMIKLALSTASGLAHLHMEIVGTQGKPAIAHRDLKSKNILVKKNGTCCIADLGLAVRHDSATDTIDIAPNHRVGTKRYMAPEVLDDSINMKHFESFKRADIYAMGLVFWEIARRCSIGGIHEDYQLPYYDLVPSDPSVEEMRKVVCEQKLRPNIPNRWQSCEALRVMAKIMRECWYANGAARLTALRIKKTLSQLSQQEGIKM
Description: In-vitro (Enzyme) Assay for Determination of the Efficacy of Inhibitors of the Inhibition of TGF-beta-Mediated Effects
The kinase assay was carried out as 384-well flashplate assay. 31.2 nM of GST-ALK5, 439 nM of GST-SMAD2 and 3 mM of ATP (with 0.3 μCi of ^33P-ATP/well) were incubated in a total volume of 35 μl (20 mM of HEPES, 10 mM of MgCl2, 5 mM of MnCl2, 1 mM of DTT, 0.1 of BSA, pH 7.4) without or with test substance (5-10 concentrations) at 30° C. for 45 min. The reaction was stopped using 25 μl of 200 mM EDTA solution, filtered with suction at room temperature after 30 min, and the wells were washed with 3 times 100 μl of 0.9% NaCl solution. Radioactivity was measured in the TopCount. The IC50 values were calculated using RS1.

[1] = test system: TGF-beta-induced phosphorylation of Smad2 and Smad3 in Mv1-Lu cells; assay: Inhibition of Smad2/3 phosphorylation in Mv1Lu cells (Example 35A); assay type: cell-based, mink Mustela vison; details: Neogale vison, Mv1-Lu cells, TGF-beta 1 5 ng/ml, phospho-Smad2/3 ELISA, read-out: TβR activity (Example 35A)
Description: Inhibition of Smad2/3 Phosphorylation in Mv1Lu Cells by TGF-bta Receptor I Kinase Inhibitors
This assay was used to determine the inhibitory potency of compounds on TGF-beta-induced phosphorylation of Smad2 (Ser465/467) and Smad3 (Ser423/425). Mv1-Lu cells (lung epithelial cell line from mink Mustela vison; ATCC number: CCL-64) were seeded in DMEM (Invitrogen) supplemented with 10% fetal bovine serum (Pan Biotech) at a defined cell density in 24-well or 96-well plates (24-well plate: 1.5×10^5 cells per well; 96-well plate: 4×10^4 cells per well). Cell cultures were incubated in DMEM at 37° C. and 10% CO2. On the next day, the medium was replaced and cells were serum-starved for 16-20 hours. The following day, serial dilutions of compounds were added to the wells, pre-incubated for 1.5 hrs before recombinant TGF-beta 1 ligand (final concentration 5 ng/ml; R&D systems) was added. After one hour of ligand stimulation, lysates were prepared and analyzed using an enzyme-linked immunosorbent assay kit (PathScan Phospho-Smad2 Kit, Cell Signaling Technologies). The ELISA detects phosphorylated Smad2 as well as phosphorylated Smad3 with the phospho-specific antibody. TGF-beta stimulated cells and unstimulated cells served as positive and negative controls (100% and background control). The concentration of the vehicle DMSO was kept constant at 0.2% (v/v) in all wells. Dose-response relationships were fitted using curve fitting algorithms of the RS1 statistics software package (Brooks Automation Inc. RS/1—Statistical Tools Handbook. Release 6.2) to determine the concentration at which half-maximal inhibition (IC50) of Smad2/3 phosphorylation was achieved.

IC50 (GST-ALK5) [nM]	IC50 [1] [nM]	Structure (SMILES)
< 100	< 100	CN1CCC(n2cc(-c3cncc(-c4cc(-c5ccccc5F)nc5ncccc45)c3)cn2)C1 (stereo not drawn) [compound 59, 2-(2-Fluoro-phenyl)-4-{5-[1-(1-methyl-pyrrolidin-3-yl)-1H-pyrazol-4-yl]-pyridin-3-yl}-[1,8]naphthyridine]
< 100	< 100	CN1CC[C@@H](n2cc(-c3cncc(-c4cc(-c5ccccc5F)nc5ncccc45)c3)cn2)C1 [compound 64, 2-(2-Fluoro-phenyl)-4-{5-[1-((R)-1-methyl-pyrrolidin-3-yl)-1H-pyrazol-4-yl]-pyridin-3-yl}-[1,8]naphthyridine]
< 100	< 100	CN1CC[C@H](n2cc(-c3cncc(-c4cc(-c5ccccc5F)nc5ncccc45)c3)cn2)C1 [compound 69, 2-(2-Fluoro-phenyl)-4-{5-[1-((S)-1-methyl-pyrrolidin-3-yl)-1H-pyrazol-4-yl]-pyridin-3-yl}-[1,8]naphthyridine]
< 100	1000 to 10000	Fc1ccccc1-c1cc(-c2cncc(-c3nccc(N4CCNCC4)n3)c2)c2cccnc2n1 [compound 71, 2-(2-fluoro-phenyl)-4-[5-(4-piperazin-1-yl-pyrimidin-2-yl)-pyridin-3-yl]-[1,8]naphthyridine]
< 100	100 to 1000	Nc1ncc(-c2cc(-c3ccccc3F)nc3ncccc23)c2ccncc12 [compound 72, 4-[2-(2-fluoro-phenyl)-[1,8]naphthyridin-4-yl]-[2,7]naphthyridin-1-ylamine]
100 to 1000	1000 to 10000	Fc1ccccc1-c1cc(-c2cncc(-c3cnn(CCn4cccn4)c3)c2)c2cccnc2n1 [compound 77, 2-(2-Fluoro-phenyl)-4-{5-[1-(2-pyrazol-1-yl-ethyl)-1H-pyrazol-4-yl]-pyridin-3-yl}-[1,8]naphthyridine]
< 100	100 to 1000	NS(=O)(=O)c1ccc(-c2cncc(-c3cc(-c4ccccc4F)nc4ncccc34)c2)cc1 [compound 78, 4-{5-[2-(2-Fluoro-phenyl)-[1,8]naphthyridin-4-yl]-pyridin-3-yl}-benzenesulfonamide]
100 to 1000	1000 to 10000	Fc1ccccc1-c1cc(-c2cncc(-n3cccn3)c2)c2cccnc2n1 [compound 79, 2-(2-Fluoro-phenyl)-4-(5-pyrazol-1-yl-pyridin-3-yl)-[1,8]naphthyridine]
100 to 1000	100 to 1000	Fc1ccccc1-c1cc(-c2cncc(-c3cnc4[nH]ncc4c3)c2)c2cccnc2n1 [compound 80, 2-(2-Fluoro-phenyl)-4-[5-(1H-pyrazolo[3,4-b]pyridin-5-yl)-pyridin-3-yl]-[1,8]naphthyridine]

The next lines start with the compound.

Structure (SMILES)	IC50 (GST-ALK5) [nM]	IC50 [1] [nM]
COCCN1CCC(n2cc(-c3cncc(-c4cc(-c5ccccc5F)nc5ncccc45)c3)cn2)CC1 [compound 52, 2-(2-Fluoro-phenyl)-4-(5-{1-[1-(2-methoxy-ethyl)-piperidin-4-yl]-1H-pyrazol-4-yl}-pyridin-3-yl)-[1,8]naphthyridine]	< 100	< 100
OCCN1CCC(n2cc(-c3cncc(-c4cc(-c5ccccc5F)nc5ncccc45)c3)cn2)CC1 [compound 53, 2-[4-(4-{5-[2-(2-Fluoro-phenyl)-[1,8]naphthyridin-4-yl]-pyridin-3-yl}-pyrazol-1-yl)-piperidin-1-yl]-ethanol]	< 100	< 100
CN1CCN(c2nc(-c3cncc(-c4cc(-c5ccccc5F)nc5ncccc45)c3)no2)CC1 [compound 54, 2-(2-Fluoro-phenyl)-4-{5-[5-(4-methyl-piperazin-1-yl)-[1,2,4]oxadiazol-3-yl]-pyridin-3-yl}-[1,8]naphthyridine]	< 100	1000 to 10000
CN1CCC(n2cc(-c3cncc(-c4cc(-c5ccccc5F)nc5ncccc45)c3)nn2)CC1 [compound 55, 2-(2-Fluoro-phenyl)-4-{5-[1-(1-methyl-piperidin-4-yl)-1H-[1,2,3]triazol-4-yl]-pyridin-3-yl}-[1,8]naphthyridine]	< 100	< 100
CN1CCN(c2nc(-c3cncc(-c4cc(-c5cc(Cl)ccc5F)nc5ncccc45)c3)no2)CC1 [compound 56, 2-(5-chloro-2-fluoro-phenyl)-4-{5-[5-(4-methyl-piperazin-1-yl)-[1,2,4]oxadiazol-3-yl]-pyridin-3-yl}-[1,8]naphthyridine]	< 100	100 to 1000
CN1CCC(n2cc(-c3cncc(-c4cc(-c5cc(Cl)ccc5F)nc5ncccc45)c3)nn2)CC1 [compound 57, 2-(5-Chloro-2-fluoro-phenyl)-4-{5-[1-(1-methyl-piperidin-4-yl)-1H-[1,2,3]triazol-4-yl]-pyridin-3-yl}-[1,8]naphthyridine]	< 100	< 100
CN1CCC(n2cc(-c3cncc(-c4cc(-c5cc(Cl)ccc5F)nc5ncccc45)c3)cn2)C1 (stereo not drawn) [compound 58, 2-(5-Chloro-2-fluoro-phenyl)-4-{5-[1-(1-methyl-pyrrolidin-3-yl)-1H-pyrazol-4-yl]-pyridin-3-yl}-[1,8]naphthyridine]	< 100	< 100
CN1CCC(c2nc(-c3cncc(-c4cc(-c5cc(Cl)ccc5F)nc5ncccc45)c3)no2)CC1 [compound 61, 2-(5-Chloro-2-fluoro-phenyl)-4-{5-[5-(1-methyl-piperidin-4-yl)-[1,2,4]oxadiazol-3-yl]-pyridin-3-yl}-[1,8]naphthyridine]	< 100	100 to 1000
CN1CCC(n2cc(-c3cncc(-c4cc(-c5cc(F)ccc5F)nc5ncccc45)n3)cn2)CC1 [compound 62, 2-(2,5-Difluoro-phenyl)-4-{6-[1-(1-methyl-piperidin-4-yl)-1H-pyrazol-4-yl]-pyrazin-2-yl}-[1,8]naphthyridine]	< 100	< 100
CN1CCC(n2cc(-c3cncc(-c4cc(-c5ccccc5)nc5ncccc45)c3)cn2)CC1 [compound 63, 4-{5-[1-(1-Methyl-piperidin-4-yl)-1H-pyrazol-4-yl]-pyridin-3-yl}-2-phenyl-[1,8]naphthyridine]	< 100	100 to 1000
CN1CC[C@@H](n2cc(-c3cncc(-c4cc(-c5cc(Cl)ccc5F)nc5ncccc45)c3)cn2)C1 [compound 65, 2-(5-Chloro-2-fluoro-phenyl)-4-{5-[1-((R)-1-methyl-pyrrolidin-3-yl)-1H-pyrazol-4-yl]-pyridin-3-yl}-[1,8]naphthyridine]	< 100	< 100
CN1CC[C@H](n2cc(-c3cncc(-c4cc(-c5cc(Cl)ccc5F)nc5ncccc45)c3)cn2)C1 [compound 68, 2-(5-Chloro-2-fluoro-phenyl)-4-{5-[1-((S)-1-methyl-pyrrolidin-3-yl)-1H-pyrazol-4-yl]-pyridin-3-yl}-[1,8]naphthyridine]	< 100	< 100
Nc1ncc(-c2cc(-c3cc(F)ccc3F)nc3ncccc23)c2ccncc12 [compound 73, 4-[2-(2,5-Difluoro-phenyl)-[1,8]naphthyridin-4-yl]-[2,7]naphthyridin-1-ylamine]	< 100	< 100
CC(=O)Nc1ncc(-c2cc(-c3ccccc3F)nc3ncccc23)c2ccncc12 [compound 74, N-{4-[2-(2-fluoro-phenyl)-[1,8]naphthyridin-4-yl]-[2,7]naphthyridin-1-yl}-acetamide]	100 to 1000	1000 to 10000
Fc1ccccc1-c1cc(-c2cncc(-c3ccc(N4CCNCC4)nc3)n2)c2cccnc2n1 [compound 81, 2-(2-Fluoro-phenyl)-4-[6-(6-piperazin-1-yl-pyridin-3-yl)-pyrazin-2-yl]-[1,8]naphthyridine]	< 100	100 to 1000
